This test relates to P388 leukemia ip, CD2F1 mice, survival T/C. Briefly: NCI In Vivo Anticancer Drug Screen. Data for tumor model P388 Leukemia (intraperitoneal) in CD2F1 (CDF1) mice. The following applies: endpoint: median survival time, higher = longer survival. In outline:
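Mice carrying the transplanted tumor received test compound or vehicle. Survival was recorded in each group, and the value is the treated-group measurement divided by that of the vehicle-treated control group.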

The mark [1] stands for this setting: dose: 50.0 mg/kg/injection, schedule: Q01DX009 (ip), vehicle: saline with Tween-80.
The mark [2] stands for this setting: dose: 100.0 mg/kg/injection, schedule: Q01DX009 (ip), vehicle: saline with Tween-80.
Setting [3] is: dose: 200.0 mg/kg/injection, schedule: Q01DX009 (ip), vehicle: saline with Tween-80.
Where [4] appears, read: dose: 100.0 mg/kg/injection, schedule: Q04DX003 (ip), vehicle: saline with Tween-80.
Where [5] appears, read: dose: 400.0 mg/kg/injection, schedule: Q04DX003 (ip), vehicle: saline with Tween-80.

Values joined by “and” are separate entries in the source; they are usually repeats but may differ in a detail not shown here. Equal values may be shown once. Toxic doses and inconclusive results are not listed.

Turning to `Cc1cc(C)cc(CSCc2c(CSCc3cc(C)cc(C)c3)c(CSCc3cc(C)cc(C)c3)c(CSCc3cc(C)cc(C)c3)c(CSCc3cc(C)cc(C)c3)c2CSCc2cc(C)cc(C)c2)c1`, the T/C was 102 % of control under setting [1], 100 % of control under setting [2] and 105 % of control under setting [3].

As to `COc1ccc2c(c1)CN(CCc1ccc([N+](=O)[O-])cc1)CO2`, the T/C was 96 % of control (dose: 50.0 mg/kg/injection, schedule: Q01DX005 (ip), vehicle: saline with Tween-80); 94 % of control (dose: 100.0 mg/kg/injection, schedule: Q01DX005 (ip), vehicle: saline with Tween-80); 96 % of control (dose: 200.0 mg/kg/injection, schedule: Q01DX005 (ip), vehicle: saline with Tween-80).

For the molecule `COc1cc(C=Nc2ccc3c(c2)OCO3)cc(OC)c1OC`, the T/C is 103 % of control (dose: 60.0 mg/kg/injection, schedule: Q01DX005 (ip), vehicle: saline with Tween-80); 100 % of control (dose: 120.0 mg/kg/injection, schedule: Q01DX005 (ip), vehicle: saline with Tween-80); 86 % of control (dose: 240.0 mg/kg/injection, schedule: Q01DX005 (ip), vehicle: saline with Tween-80).

As to `CN(C)c1cc(=O)c2ccc3ccccc3c2o1`, the T/C is 96 % of control under setting [1], 96 % of control under setting [2] and 93 % of control under setting [3].

On to `C=CCCn1nnc(-c2ccccc2)n1`, for which the T/C is 102 % of control (dose: 25.0 mg/kg/injection, schedule: Q04DX003 (ip), vehicle: saline with Tween-80); 96 % of control (dose: 50.0 mg/kg/injection, schedule: Q04DX003 (ip), vehicle: saline with Tween-80); 100 % of control under setting [4]; 104 % of control and 105 % of control (dose: 200.0 mg/kg/injection, schedule: Q04DX003 (ip), vehicle: saline with Tween-80); 94 % of control under setting [5].

As to `C=Cc1c(C)c2cc3[nH]c(cc4nc(cc5nc(cc1[nH]2)C(C)=C5CCC(=O)OC)C(CCC(=O)OC)=C4C)c(C)c3C#N`, the T/C is 107 % of control (dose: 50.0 mg/kg/injection, schedule: Q01DX005 (ip), vehicle: Klucel (hydroxypropylcellulose) (HPC)); 109 % of control (dose: 100.0 mg/kg/injection, schedule: Q01DX005 (ip), vehicle: Klucel (hydroxypropylcellulose) (HPC)); 111 % of control (dose: 200.0 mg/kg/injection, schedule: Q01DX005 (ip), vehicle: Klucel (hydroxypropylcellulose) (HPC)).

In the case of `Cc1ccc(S(=O)(=O)NC(=O)Nc2ncn[nH]2)cc1`, the T/C runs as follows: under setting [1], 99 % of control; under setting [2], 98 % of control; under setting [3], 104 % of control.

For `CCN(CC)CCNc1ccc(CO)c2sc3ccccc3c(=O)c12`, the T/C reads like this: (dose: 5.0 mg/kg/injection, schedule: Q01DX005 (ip), vehicle: water) 110 % of control; (dose: 5.0 mg/kg/injection, schedule: Q01DX009 (ip), vehicle: water) 113 % of control; (dose: 6.25 mg/kg/injection, schedule: Q01DX005 (ip), vehicle: saline) 104 % of control; (dose: 6.25 mg/kg/injection, schedule: Q01DX005 (iv), vehicle: saline) 100 % of control; (dose: 10.0 mg/kg/injection, schedule: Q01DX005 (ip), vehicle: water) 106 % of control; (dose: 10.0 mg/kg/injection, schedule: Q01DX009 (ip), vehicle: water) 116 % of control. The T/C is, setting by setting: (dose: 10.36 mg/kg/injection, schedule: Q01DX005 (ip), vehicle: water) 118 % of control; (dose: 12.5 mg/kg/injection, schedule: Q01DX005 (ip), vehicle: saline) 101 % of control; (dose: 12.5 mg/kg/injection, schedule: Q01DX005 (iv), vehicle: saline) 104 % of control; (dose: 12.5 mg/kg/injection, schedule: Q01DX009 (ip), vehicle: water) 109 % of control; (dose: 17.28 mg/kg/injection, schedule: Q01DX005 (ip), vehicle: water) 109 % of control; (dose: 20.0 mg/kg/injection, schedule: Q01DX005 (ip), vehicle: water) 104 % of control. In addition, the T/C by setting is: (dose: 20.0 mg/kg/injection, schedule: Q01DX009 (ip), vehicle: water) 118 % of control; (dose: 25.0 mg/kg/injection, schedule: Q01DX005 (ip), vehicle: saline) 109 % of control; (dose: 25.0 mg/kg/injection, schedule: Q01DX005 (iv), vehicle: saline) 108 % of control; (dose: 25.0 mg/kg/injection, schedule: Q01DX009 (ip), vehicle: water) 122 % of control; (dose: 28.8 mg/kg/injection, schedule: Q01DX005 (ip), vehicle: water) 109 % of control; (dose: 50.0 mg/kg/injection, schedule: Q01DX005 (iv), vehicle: saline) 117 % of control. The T/C was 156 % of control (dose: 50.0 mg/kg/injection, schedule: Q01DX009 (ip), vehicle: water); 151 % of control and 182 % of control (dose: 80.0 mg/kg/injection, schedule: Q01DX005 (ip), vehicle: water); 100 % of control (dose: 100.0 mg/kg/injection, schedule: Q01DX009 (ip), vehicle: water); 118 % of control under setting [4]; 150 % of control (dose: 200.0 mg/kg/injection, schedule: Q04DX003 (ip), vehicle: saline sonified); 90 % of control under setting [5].

Take `CCCCCCN(CCCCCC)c1nsc(Cl)n1`: the T/C by setting is: (dose: 40.0 mg/kg/injection, schedule: Q01DX009 (ip), vehicle: saline with Tween-80) 105 % of control; (dose: 80.0 mg/kg/injection, schedule: Q01DX009 (ip), vehicle: saline with Tween-80) 108 % of control; (dose: 160.0 mg/kg/injection, schedule: Q01DX009 (ip), vehicle: saline with Tween-80) 111 % of control.

As to `O=C(NCc1ccncc1)Nc1ccc(Cc2ccc(NC(=O)NCc3ccncc3)cc2)cc1`, the T/C (dose: 50.0 mg/kg/injection, schedule: Q01DX009 (ip), vehicle: Klucel (hydroxypropylcellulose) (HPC)) is 105 % of control; the T/C (dose: 100.0 mg/kg/injection, schedule: Q01DX009 (ip), vehicle: Klucel (hydroxypropylcellulose) (HPC)) was 102 % of control; the T/C (dose: 200.0 mg/kg/injection, schedule: Q01DX009 (ip), vehicle: Klucel (hydroxypropylcellulose) (HPC)) was 103 % of control.
